{
  "source": "patent US20100260785A1",
  "about": "“SARP-1 Fusion Proteins and Uses Thereof” (priority 2007, published 2010)",
  "key": {"[1]": {"tested_on": "human hepatic stellate cells", "assay": "Incorporation of 3H-thymidine into DNA of PDGF-BB-stimulated primary human hepatic stellate cells", "assay_type": "cell-based", "conditions": "PDGF-BB 10 ng/ml; 10, 1 and 0.1 μg/ml", "method": "(§1) Human hepatic stellate cells (HSCs) were isolated from wedge sections of normal human liver unsuitable for transplantation. Liver tissue was digested with collagenase/pronase. HSC were separated from other liver nonparenchymal cells by ultracentrifugation over gradients of Stractan (Cellsep isotonic solution; Larex Inc., St. Paul, Minn.). HSC were cultured on plastic culture dishes in Iscove's modified Dulbecco's medium supplemented with 0.6 U/mL of insulin, 2.0 mmol/L of glutamine, 0.1 mmol/L of nonessential amino acids, 1.0 mmol/L of sodium pyruvate, antibiotic-antimycotic solution (all provided by Gibco Laboratories, Grand Island, N.Y.), and 20% fetal bovine serum (Imperial Laboratories, Andover, UK). All experiments were performed in triplicate and results are expressed as MEAN+SD. Statistical significance was evaluated by Student t test.\n(§2) For this group of experiments the stimulus of choice was human recombinant PDGF-BB at the standard dose of 10 ng/ml. Canrenone (10 μM), whose inhibitory effect has been previously shown in the same cell preparations (Caligiuri et al., 2003), was used as a positive control of inhibition.\nHSC were plated in 24 well plastic dishes and grown to confluence in complete cell culture medium containing 20% of fetal bovine serum (FBS). HSC were then deprived of serum for 48 hours and stimulated with PDGF-BB for additional 24 hours. […]"}, "[2]": {"tested_on": "murine Wnt1 and human Wnt2", "assay": "Wnt antagonistic activity, LEF-luciferase reporter assay with mixed Inducer and Reporter 293T cells", "assay_type": "cell-based", "method": "293T cells expressing murine Wnt1 and human Wnt2 (Inducer Cells) and 293T cells expressing Luciferase under the control of LEF-site-linked promoter (Reporter Cells) were mixed at an equal ratio and seeded in 100 μl medium per well in a 96-well microtiter plate. The Inducer Cells by overexpressing Wnt1 and Wnt2 at its surface were able to induce an activation of the Wnt signaling pathway triggered by the interaction of the Wnt proteins with its receptor at the cell membrane of the Reporter Cells. The Reporter Cells in response to Wnt pathway activation expressed luciferase by the activation of Wnt responsive genes such as LEF.\nThe mixture was composed of about 10,000 Inducer Cells and 10,000 Reporter Cells per well. SARP-1(Fz)delta7-Fc was added to the culture medium at different concentrations (from 300 to 5 μg/ml). After 48 hours of incubation, the medium was discarded, and 40 μl lysis buffer were added to the cells. After 15 minutes of lysis on an orbital shaker at 4° C., the samples were submitted to two cycles of freezing and thawing followed by rigid shaking using a vortex (for 2 minutes) and sedimentation by centrifugation at 2000 rpm in V-shape microtiter plates.\nLuciferase activities were normalized by total protein content in the lysate. Protein quantification was performed on 5 μl cell lysate using the BCA kit (Pierce) as known in the art. To measure the luciferase activity, 10 μl of cell lysate each was transferred into a 96-well microtiter plate. 15 μl of luciferin reagent was added to the sample and the quantification of the luminescence was counted during 10 seconds.\nThe results were expressed in percentage of Wnt activation. Thus, the maximal luciferase activity obtained with the mixture of Inducer and Reporter Cells corresponded to 100%."}, "[3]": {"tested_on": "unilateral ureter ligation-induced renal fibrosis", "assay": "Unilateral ureter obstruction (UUO) murine model of renal fibrosis", "assay_type": "in vivo, C57BL/6 mice", "conditions": "subcutaneous, 1.5 mg/ml, once a day, 21 days of treatment; p<0.05", "method": "The in vivo activity of SARP-1(Fz)[…]-Fc was tested in an experimental model of obstructive nephropathy, which is unilateral ureter ligation-induced renal fibrosis (Vielhauer et al., 2001). Female inbred C57BL/6 mice weighing 20 to 26 g were kept in macrolone type III cages under a 12 h light/dark cycle. Water and standard chow were available ad libitum. Under general ether anesthesia, a low midline abdominal incision was performed and the ligation of the left distal ureter was made with a 2/0 Mersilene suture, resulting in a unilateral ureter obstruction (UUO). Unobstructed contralateral kidneys served as controls. […] The first dose was administered immediately after UUO once a day for 21 days Mice were killed at 7 and 21 days after UUO by cervical dislocation under general anesthesia with inhaled ether. From each mouse cranial kidney halves were used for histological assessment. Ligated and contralateral kidney tissue was fixed for 24 hours at room temperature in 4% neutral buffered formalin and then embedded in paraffin. For quantitative analysis, 4 μm horizontal sections were cut. Every fifth of fifteen subsequent sections, chosen by systematic uniformly random sampling, was used for analysis. […]"}, "[4]": {"tested_on": "lung fibroblasts of patients with interstitial pulmonary fibrosis (IPF)", "assay": "BrdU incorporation (cell proliferation ELISA) in primary lung fibroblasts from IPF patients", "assay_type": "cell-based, human", "conditions": "for PDGF-increased BrdU incorporation: PDGF 10 ng/ml", "method": "To evaluate the effect of SARP-1(Fz)delta7-Fc, lung fibroblasts were obtained from lung explants of patients with interstitial pulmonary fibrosis (IPF) (N=3) and controls (N=3). Fibroblasts were cultured in 96 well cell culture plates in DMEM medium with high glucose (25 mM) and 10% Fetal Clone II (Hyclone) until they reached approximately 50% confluence. Fetal Clone II is an alternative to fetal bovine serum (FBS). Then the cells were cultured for 48 hours with Fetal Clone II at a concentration of 1%. […] Bromodeoxyuridine (5-bromo-2-deoxyuridine, BrdU) was added 24 hours later at a final concentration of 100 μM. After 24 hours of incubation, cells were fixed and lysed. Cell proliferation was evaluated with the cell proliferation ELISA BrdU colorimetric assay (Roche Diagnostics, Meylan, France) ELISA. The experiments were performed in the basal condition (without PDGF) and in the presence of PDGF (10 ng/ml), All experimental conditions were tested in triplicates and the mean value was calculated. For each experimental condition, the incorporation of BrdU was expressed as a percentage of the incorporation observed in the control condition in the same culture."}, "[5]": {"tested_on": "SW480 (human colon carcinoma) cell line", "assay": "MTT cell proliferation assay, SW480", "assay_type": "cell-based", "conditions": "1, 3 or 6 μM; MTT after 24, 48, 72 and 96 hours", "method": "(§3) The cell line B16F1 (mouse melanoma) were cultivated in DMEM+10% serum and seeded at 5000 cells/well in a total volume of 50 μl. The SW480 and SW620 (human colon carcinoma) cell lines were cultivated in L15 medium+10% fetal bovine serum and seeded at 20,000 cells per well in a total volume of 50 μl. SARP-1(Fz)delta7-Fc was added immediately at a concentration of 1, 3 or 6 μM.\n(§4) Cell proliferation assay was evaluated by reduction of 3-(4,5-dimethylthiazol-2-yl)-2,5-diphenyltetrazolium bromide (MTT) after 24, 48, 72 and 96 hours of culture. For the test of cell proliferation, 5 μl and 10 μl of MTT solution were added to the cultures of B16F1, SW480 and SW620 cells, respectively. After the incubation period, cells were lysed in 200 μl DMSO, and optic density was determined at 570 and 630 nm. The positive control for inhibition of cell proliferation was DKK1-Fc used at a concentration of 1 μM during the experiment."}, "[6]": {"tested_on": "human hepatic stellate cells", "assay": "Cell proliferation assay (cell number/well) of PDGF-BB-stimulated primary human hepatic stellate cells", "assay_type": "cell-based", "method": "as §1, §2\nHSC were plated in 12 well dishes at 30% confluence in Iscove's modified Dulbecco's medium supplemented with 0.6 U/mL insulin, 2.0 mmol/L of glutamine, 0.1 mmol/L nonessential amino acids, 1.0 mmol/L of sodium pyruvate, antibiotic-antimycotic solution (all from Gibco Laboratories, Grand Island, N.Y.), and 20% fetal bovine serum (Imperial Laboratories, Andover, UK). After 24 hours the HSC were incubated with serum-free medium containing PDGF-BB to induce activation at a concentration of 10 ng/ml with or without SARP-1(Fz)delta7-Fc at a concentration of 10, 1 and 0.1 μg/ml. HSC were harvested and cell number/well were determined after 2, 4, and 6 days of culture. At each time point fresh medium and experimental conditions were added at the remaining wells."}, "[7]": {"tested_on": "SW620 (human colon carcinoma) cell line", "assay": "MTT cell proliferation assay, SW620", "assay_type": "cell-based", "conditions": "1, 3 or 6 μM; MTT after 24, 48, 72 and 96 hours", "method": "as §3, §4"}, "[8]": {"tested_on": "B16F1 (mouse melanoma) cell line", "assay": "MTT cell proliferation assay, B16F1", "assay_type": "cell-based", "method": "as §3, §4"}},
  "note": "pEC50, pIC50: −log10 of the molar value. “Also recorded” adds a separate entry of the source.",
  "data": [
    {"substance": "SARP-1(Fz)delta7-Fc: Fusion of mature SARP-1 without Netrin domain, lacking first seven N-terminal amino acids, with human IgG1 Fc region", "values": [
      {"measurement": "PDGF-induced DNA synthesis in primary human hepatic stellate cells cultures", "setting": "[1]", "value": "reduced significantly"},
      {"measurement": "pIC50", "setting": "[2]; 48 hours incubation, 300 to 5 μg/ml, read-out: IC50, reduction of luciferase activity", "value": 6.12},
      {"measurement": "Emax reached, inhibition of Wnt 1 and Wnt 2 activation", "setting": "[2]; FIG. 3 legend", "value": 80, "unit": "%"},
      {"measurement": "pEC50", "setting": "[2]; FIG. 3 legend, read-out: EC50, inhibition of Wnt 1 and Wnt 2 activation in a reporter cellular assay", "value": 6.12},
      {"measurement": "maximum inhibition of luciferase activity", "setting": "[2]; at concentration from 150 to 300 μg/ml", "value": 80, "unit": "%"},
      {"measurement": "alfa smooth muscle actin (α-SMA) accumulation, myofibroblast marker, histological analysis", "setting": "[3]", "value": "reduction; also recorded: decreased"},
      {"measurement": "renal fibrosis by morphometric analysis of the changes in the tubular interstitium", "setting": "[3]", "value": "reduction of renal fibrosis"},
      {"measurement": "PDGF-increased BrdU incorporation", "setting": "[4]; 1 μg/ml", "value": "no effect"},
      {"measurement": "PDGF-increased BrdU incorporation", "setting": "[4]; 10 μg/ml", "value": "no effect"},
      {"measurement": "PDGF-increased BrdU incorporation", "setting": "[4]; 100 μg/ml", "value": "profoundly inhibited"},
      {"measurement": "PDGF-increased BrdU incorporation", "setting": "[4]; concentration not given", "value": "reduced BrdU incorporation"},
      {"measurement": "BrdU incorporation, basal condition", "setting": "[4]; without PDGF, in b213 at the highest dose tested", "value": "reduced BrdU incorporation"},
      {"measurement": "inhibition of cell proliferation of SW480", "setting": "[5]", "value": "able to inhibit the cell proliferation; also recorded: inhibited cell proliferation"},
      {"measurement": "inhibitory effect on PDGF-induced hepatic stellate cells", "setting": "[6]; 10.0 μg/ml after 2, 4 and 6 days of culture", "value": "more prominent"},
      {"measurement": "PDGF-induced cell growth of hepatic stellate cells", "setting": "[6]; 10.0 μg/ml for 2, 4 or 6, PDGF-BB 10 ng/ml", "value": "significantly decreased"},
      {"measurement": "inhibitory effect on PDGF-induced hepatic stellate cells", "setting": "[6]; dose of 1 μg/ml after 2 days of culture", "value": "statistically significant"},
      {"measurement": "inhibition of cell proliferation of SW620", "setting": "[7]", "value": "able to inhibit the cell proliferation; also recorded: inhibited cell proliferation"},
      {"measurement": "level of inhibition of B16F1 proliferation compared with positive control DKK1-Fc (1 μM)", "setting": "[8]; 6 μM", "value": "comparable to the one obtained by using the positive control"},
      {"measurement": "inhibition of proliferation of B16F1 melanoma cell line", "setting": "[8]; 1 to 6 μM, MTT after 24, 48, 72 and 96 hours", "value": "significant inhibition; also recorded: inhibited cell proliferation"}
    ]}
  ]
}
